According to patent US20200306295A1, “METHOD AND DEVICE FOR ANNIHILATION OF Staphylococcus aureus” (priority 2017, published 2020):

Test system: 200 kinds of cytokines
Assay: Fold change of 200 cytokines in homogenized wound tissue
Assay type: in vivo, Balb/c mice
From the text: To quantify the physiological condition of the wound tissues, we measured the concentrations of 200 kinds of cytokines (Table. 1) from the supernatant of homogenized tissue solution. Cytokines are small secreted proteins released by cells and have specific effect on the interactions and communications between cells (25).
To initiate the formation of a skin wound, five groups (n=5) of eight-week old female Balb/c mice (obtained from Harlan Laboratories, Indianapolis, Ind., USA) were disinfected with ethanol (70%) and shaved on the middle of the back (approximately a one-inch by one-inch square region around the injection site) one day prior to infection as described from a reported procedure (3). To prepare the bacterial inoculum, an aliquot of overnight culture of MRSA USA300 was transferred to fresh Tryptic soy broth and shaken at 37° C. until an OD600 value of ˜1.0 was achieved. The cells were centrifuged, washed once with PBS, re-centrifuged, and then re-suspended in PBS. Mice subsequently received an intradermal injection (40 μL) containing 2.40×10^9 CFU/mL MRSA USA300.
One group of mice was left untreated (negative control). Each group of mice receiving a particular treatment regimen was housed separately in a ventilated cage with appropriate bedding, food, and water. […] Mice were treated twice daily (once every 12 hours) for three days, before they were humanely euthanized via CO2 asphyxiation 12 hours after the last dose was administered. The region around the skin wound was lightly swabbed with ethanol (70%) and excised. The tissue was subsequently homogenized in PBS. The homogenized tissue was then serially diluted in PBS before plating onto mannitol salt agar plates. Plates were incubated for at least 19 hours at 37° C. before viable MRSA CFU/mL were counted for each group. Outlier was removed based upon the Dixon Q Test.

CC(=O)O[C@H]1C[C@@]2(C)[C@@H](C[C@@H](O)[C@H]3[C@@]4(C)CC[C@@H](O)[C@@H](C)[C@@H]4CC[C@@]32C)/C1=C(\CCC=C(C)C)C(=O)O [fusidic acid]
fold change of MBL-2 (mean) (cytokine MBL-2, group mean, wound tissue of MRSA-infected mice): 0.0893 | fold change of Meteorin (mean) (cytokine Meteorin, group mean, wound tissue of MRSA-infected mice): 0.3361 | fold change of NOV (mean) (cytokine NOV, group mean, wound tissue of MRSA-infected mice): −0.2053 | fold change of Nope (mean) (cytokine Nope, group mean, wound tissue of MRSA-infected mice): 0.0534 | fold change of OX40 Ligand (mean) (cytokine OX40 Ligand, group mean, wound tissue of MRSA-infected mice): −0.1454 | fold change of Osteoactivin (mean) (cytokine Osteoactivin, group mean, wound tissue of MRSA-infected mice): 1.1132 | fold change of P-Cadherin (mean) (cytokine P-Cadherin, group mean, wound tissue of MRSA-infected mice): 0.5883 | fold change of Periostin (mean) (cytokine Periostin, group mean, wound tissue of MRSA-infected mice): 0.1651 | fold change of PlGF-2 (mean) (cytokine PlGF-2, group mean, wound tissue of MRSA-infected mice): −0.0798 | fold change of Progranulin (mean) (cytokine Progranulin, group mean, wound tissue of MRSA-infected mice): −0.4424 | fold change of Prostasin (mean) (cytokine Prostasin, group mean, wound tissue of MRSA-infected mice): 0.1030 | fold change of Renin 1 (mean) (cytokine Renin 1, group mean, wound tissue of MRSA-infected mice): −0.4138 | fold change of TIM-1 (mean) (cytokine TIM-1, group mean, wound tissue of MRSA-infected mice): −0.0806 | fold change of Testican 3 (mean) (cytokine Testican 3, group mean, wound tissue of MRSA-infected mice): −0.4097 | fold change of Tryptase ε (mean) (cytokine Tryptase ε, group mean, wound tissue of MRSA-infected mice): −0.0627 | share of 200 cytokines with negative fold change vs untreated (fusidic acid alone): around 50% | fold change of 4-1BB (mean, wound tissue): −0.0924 | fold change of 6Ckine (mean, wound tissue): 0.0930 | fold change of ACE (mean, wound tissue): −0.3271 | fold change of ADAMTS1 (mean, wound tissue): 0.2350 | fold change of ALK-1 (mean, wound tissue): −0.0491 | fold change of ANG-3 (mean, wound tissue): 0.0313 | fold change of ANGPTL3 (mean, wound tissue): −0.2231 | fold change of AR (mean, wound tissue): 0.6274 | fold change of Activin A (mean, wound tissue): 0.2305 | fold change of Adiponen (mean, wound tissue): 0.0147 | fold change of Artemin (mean, wound tissue): 0.4218 | fold change of Axl (mean, wound tissue): 0.0523 | fold change of B7-1 (mean, wound tissue): −0.0561 | fold change of BAFF R (mean, wound tissue): 0.0687 | fold change of BLC (mean, wound tissue): −0.3200 | fold change of BTC (mean, wound tissue): 3.8576 | fold change of C5a (mean, wound tissue): 0.1215 | fold change of CCL6 (mean, wound tissue): −0.4027 | fold change of CCL28 (mean, wound tissue): 1.0791 | fold change of CD6 (mean, wound tissue): 0.3476 | fold change of CD27 (mean, wound tissue): 0.2818 | fold change of CD27L (mean, wound tissue): −0.0491 | fold change of CD30 (mean, wound tissue): 0.0137 | fold change of CD30L (mean, wound tissue): −0.0682 | fold change of CD36 (mean, wound tissue): 0.0674 | fold change of CD40 (mean, wound tissue): 0.3337 | fold change of CD40L (mean, wound tissue): 0.0244 | fold change of CD48 (mean, wound tissue): −0.0498 | fold change of CRP (mean, wound tissue): −0.0863 | fold change of CT-1 (mean, wound tissue): −0.0581 | fold change of CTLA4 (mean, wound tissue): 0.2149 | fold change of CXCL16 (mean, wound tissue): 0.2447 | fold change of Chemerin (mean, wound tissue): 0.1948 | fold change of Chordin (mean, wound tissue): −0.0599 | fold change of Clusterin (mean, wound tissue): 0.2455 | fold change of Cystatin C (mean, wound tissue): −0.0271 | fold change of DLL4 (mean, wound tissue): −0.0252 | fold change of Decorin (mean, wound tissue): −0.0222 | fold change of Dkk-1 (mean, wound tissue): 0.1157 | fold change of Dtk (mean, wound tissue): 0.1217 | fold change of E-Cadherin (mean, wound tissue): 0.1848 | fold change of E-selectin (mean, wound tissue): −0.2004 | fold change of EDAR (mean, wound tissue): −0.4592 | fold change of EGF (mean, wound tissue): 0.0517 | fold change of Endocan (mean, wound tissue): 0.0559 | fold change of Endoglin (mean, wound tissue): 0.4267 | fold change of Eotaxin (mean, wound tissue): 0.8019 | fold change of Eotaxin-2 (mean, wound tissue): 0.0292 | fold change of Epigen (mean, wound tissue): −0.0490 | fold change of Epiregulin (mean, wound tissue): −0.2220 | fold change of Fas (mean, wound tissue): 0.0163 | fold change of Fas L (mean, wound tissue): −0.4112 | fold change of Fcg RIIB (mean, wound tissue): 0.0602 | fold change of Fetuin A (mean, wound tissue): −0.6614 | fold change of Flt-3L (mean, wound tissue): 0.1619 | fold change of Fractalkine (mean, wound tissue): −0.2364 | fold change of G-CSF (mean, wound tissue): 0.1394 | fold change of GITR (mean, wound tissue): 0.3966 | fold change of GITR L (mean, wound tissue): 0.2327 | fold change of GM-CSF (mean, wound tissue): −0.1708 | fold change of Galectin-1 (mean, wound tissue): 0.0284 | fold change of Galectin-3 (mean, wound tissue): 0.0624 | fold change of Galectin-7 (mean, wound tissue): 0.7990 | fold change of Gas 1 (mean, wound tissue): 0.0715 | fold change of Gas 6 (mean, wound tissue): −0.0661 | fold change of Granzyme B (mean, wound tissue): 0.5603 | fold change of Gremlin (mean, wound tissue): 4.9707 | fold change of H60 (mean, wound tissue): 0.2171 | fold change of HAI-1 (mean, wound tissue): 0.2271 | fold change of HGF (mean, wound tissue): 0.2701 | fold change of HGF R (mean, wound tissue): 0.0292 | fold change of I-TAC (mean, wound tissue): 0.3744 | fold change of ICAM-1 (mean, wound tissue): 1.5512 | fold change of IFNg (mean, wound tissue): −0.0599 | fold change of IFNg R1 (mean, wound tissue): 0.0709 | fold change of IGF-1 (mean, wound tissue): −0.4445 | fold change of IGFBP-2 (mean, wound tissue): −0.0879 | fold change of IGFBP-3 (mean, wound tissue): −0.2120 | fold change of IGFBP-5 (mean, wound tissue): −0.0782 | fold change of IGFBP-6 (mean, wound tissue): −0.2897 | fold change of IL-1 R4 (mean, wound tissue): −0.0208 | fold change of IL-1a (mean, wound tissue): −0.0503 | fold change of IL-1b (mean, wound tissue): −0.2158
